Laboratory results as given in patent US20170035742A1, “DURABLE TREATMENT WITH 4-AMINOPYRIDINE IN PATIENTS WITH DEMYELINATION” (Acorda Therapeutics, Inc., priority 2009, published 2017).

Assays:
[1] = tested on: patients with multiple sclerosis; assay: MS-F203EXT open-label extension study; conditions: over two years open-label
Protocol: This extension study (MS-F203EXT) monitored efficacy and safety during open-label treatment of patients from MS-F203. Design/methods: Patients were treated with 10 mg fampridine bid, and were assessed in the clinic at 2, 14, and 26 weeks and every 6 months thereafter. Eligibility criteria included: definite MS; age 18-70; Timed 25-Foot Walk (T25FW) times of 8-45 seconds at screening for MS-F203. Efficacy was analyzed by the proportion of Extension Timed Walk Responders (ETWRs) whose walking was faster during the majority of visits than their fastest off-treatment speed.
MS-F203EXT monitored efficacy and safety during open-label treatment of patients from MS-F203. Patients were treated with 10 mg fampridine bid, and were assessed in the clinic at 2, 14, and 26 weeks and every 6 months thereafter. Eligibility criteria included: definite MS; age 18-70; Timed 25-Foot Walk (T25FW) times of 8-45 seconds at screening for MS-F203. Efficacy was analyzed by the proportion of Extension Timed Walk Responders (ETWRs) whose walking was faster during the majority of visits than their fastest off-treatment speed. […] There are safety assessments, a timed 25 Foot Walk assessment, Clinician and Subject Global Impression at each visit. An EDSS assessment is performed every 2 years.
Timed walk response in the extension study was measured using the Timed 25-Foot Walk (T25W). […]

[2] = Rat i.v. and p.o. pharmacokinetics, 2 mg/kg (M 2001-03); conditions: AUC(0-∞) p.o. vs i.v.
[3] = Adverse events in controlled clinical studies; assay type: in vivo, human
From the text: In controlled clinical studies involving the use of 4-aminopyridine, the most frequent adverse events by body system occurred in the nervous system, “body as a whole”, and digestive system.
While an increased incidence of such events appears to be moderately dose-related, the susceptibility of individuals is quite variable. As a result of disease pathology, there appears to be potential for more lowering of seizure threshold in people with MS than for people with spinal cord injury; this may result from interaction of the channel-blocking properties of the drug with MS brain pathology in certain individuals.

[4] = Single- and repeated-dose toxicity studies; assay type: in vivo; conditions: after large single doses or repeated lower doses, all species studied
From the text: In single- and repeated-dose toxicity studies, the dosing regimen greatly affected the rate of side effects. […] These clinical signs were not unexpected and represent exaggerated pharmacology of 4-aminopyridine.

Plasma protein binding = assay type: in vitro ADME; conditions: human
From the text: Measurable levels are present in the saliva.

[5] = Tissue distribution of 14C-labeled 4-aminopyridine 1 mg/kg p.o. in rats; conditions: one hour post-dose
Protocol: In a single-dose study, rats were administered ^14C-labeled 4-aminopyridine (1 mg/kg) p.o. Three animals per time point were sacrificed 1, 3, 8, and 24 hours post-dose. Blood was collected and tissues were excised for determination of radioactivity.

Compound | safety profile [1] | bioavailability ([2]; female rats) [%] | bioavailability ([2]; male rats) | most common nervous system adverse events [3] | most frequently reported event in the digestive system category [3] | clinical signs [4] | unbound to plasma proteins (Plasma protein binding) | dose accounted for in total [5] [%] | radioactivity in blood, percent of dose [5] [%] | radioactivity in kidney, percent of dose [5] [%] | radioactivity in liver, percent of dose [5] [%]
Nc1ccncc1 [4-aminopyridine] | No new safety issues emerged | ~55 | approximately 66.5% | Dizziness, insomnia, paresthesia, pain, headache and asthenia | nausea | tremors, convulsions, ataxia, dyspnea, dilated pupils, prostration, abnormal vocalization, increased respiration, excess salivation, gait abnormalities, and hyper- and hypo-excitability | 97-99% | – | – | – | –
^14C-4-Aminopyridine | – | – | – | – | – | – | – | 58.3 | 0.7 | 1.6 | 2.6
